Test results as given in patent publication US11992468B2, “Abuse-deterrent dosage forms containing esketamine” (Clexio Biosciences Ltd., priority 2019, dated 2024).
Structures can show the parent of a compound that is named as a salt.

Assay: Simulated in vitro nasal diffusion/release (vertical diffusion cell)
Details: pH 6.4

## CN[C@]1(c2ccccc2Cl)CCCCC1=O [Esketamine HCl powder, esketamine hydrochloride]
  recovery at 10 min: 45.1%
  recovery at 30 min: 75.9%
  recovery at 60 min: 79.2%
